Counter-ions that a name gives are not always drawn. Some results are limits rather than exact numbers.

Series [1] can be described thus: Feasibility pK rat study (LAI potential of aqueous micro-suspensions, IM). Type of series: in vivo. The conditions noted are these: 50 mg/kg, aqueous micro-suspension 125 mg/mL; for long-acting release profile (yes/no): citrate buffer pH 5, FIG. 9. As to the method: For this study, aqueous micro-suspensions of Selexipag, {4-[(5,6-diphenylpyrazin-2-yl)(propan-2-yl)amino]butoxy}acetic acid and calcium; {4-[(5,6-diphenylpyrazin-2-yl)(propan-2-yl)amino]butoxy}acetate were prepared. An overview of the design of the study can be found in Table 1.
Release profiles and mean AUC of the different formulations are depicted in FIG. 9.

Series [2] in a line: Solubility in water / aqueous media and dissolution rate. The format is physicochemical. To be noted: for solubility: water / aqueous media.
In series [3] the test system is pulmonary arterial hypertension. To be noted: phase III, patients with pulmonary arterial hypertension; cited from earlier work.
Series [4] in a line: Physical stability of solid form on storage (7 days, humidity). Type of series: physicochemical.
Series [5] is described as follows: Hygroscopicity (change in mass between 0 and 90% RH). Type of series: physicochemical.
The mark [6] stands for this setting: 7 days storage at 25° C./97% RH.
Setting [7] is: 7 days storage at 40° C./75% RH.

Take `CC(C)N(CCCCOCC(=O)NS(C)(=O)=O)c1cnc(-c2ccccc2)c(-c2ccccc2)n1` [Selexipag, 2-{4-[(5,6-diphenylpyrazin-2-yl)(propan-2-yl)amino]butoxy}-N-(methanesulfonyl)acetamide]: the “long-acting release profile (yes/no)” value in series [1] is listed as “did not demonstrate a long-acting release profile”. For the same compound, in series [2], the dissolution rate result was “high” and the solubility entry is listed as “high”. In addition, the “risk of the primary composite end point of death or a complication related to pulmonary arterial hypertension vs placebo” value in series [3] was “significantly lower”.

Consider “Calcium; {4-[(5,6-diphenylpyrazin-2-yl)(propan-2-yl)amino]butoxy}acetate [Amorphous Form]”, for which the “physical stability after storage” value in series [4] (setting [6]) and in series [4] (setting [7]) was “physically stable” each time.

With `CC(C)N(CCCCOCC(=O)O)c1cnc(-c2ccccc2)c(-c2ccccc2)n1` [Selexipag metabolite, 2-(4-((5,6-diphenylpyrazin-2-yl)(isopropyl)amino)butoxy)acetic acid], in series [1], the “long-acting release profile (yes/no)” value was “did not demonstrate a long-acting release profile”. Moreover, in series [2], the dissolution rate entry is listed as “high” and the solubility entry is reported as “high”.

In the case of `CC(C)N(CCCCOCC(=O)O)c1cnc(-c2ccccc2)c(-c2ccccc2)n1` [Ca-salt of ACT-333679, calcium; {4-[(5,6-diphenylpyrazin-2-yl)(propan-2-yl)amino]butoxy}acetate], in series [1] (FIG. 9), the “duration of long-acting release profile” value is reported as “up to 336 hours” and the “time until which AUC increases” value was not above 720 h. Further, the “plasma concentrations compared to both other groups” value in series [1] (PVP K17 citrate buffer, FIG. 9) is “significant lower plasma concentrations”. In series [2] (listed as calcium salt of selexipag metabolite), the solubility result is “low solubility in water”. For the same compound, in series [2] ({4-[(5,6-diphenylpyrazin-2-yl)(propan-2-yl)amino]butoxy}acetate), the solubility result is “low solubility in aqueous media”.

For “calcium; {4-[(5,6-diphenylpyrazin-2-yl)(propan-2-yl)amino]butoxy}acetate [Form 2]”, the “physical stability after storage” value in series [4] (setting [6]) and in series [4] (setting [7]) was “physically stable” each time. Also, the hygroscopicity entry in series [5] is listed as “slightly hygroscopic”. In addition, the “reversible change in mass” value in series [5] (between 0 and 90% RH) is on record as 2%.
